In ChEMBL document CHEMBL4118026, “Limaol: A Polyketide from the Benthic Marine Dinoflagellate Prorocentrum lima” (J Nat Prod, 2017) one finds IC50 data, which are given here for 2 compounds.

What all share (type): functional, cell-based
The subject of one assay is N2a. As to the kind of experiment: Cytotoxicity against mouse Neuro2a cells after 24 hrs by MTT assay. For orientation: Tetrazolium assays rely on reduction of a dye to a coloured formazan, in cell work by metabolically active cells.
The test system of another assay is HCT-116. In words: Cytotoxicity against human HCT116 cells after 24 hrs by MTT assay. Particulars: HCT-116, 24 h.
The test system of a further assay is HepG2. As to the kind of experiment: Cytotoxicity against human HepG2 cells after 24 hrs by MTT assay. The conditions noted are these: HepG2, 24 h.

Structures are written as SMILES.

Consider `C=C(CC(=C)CC(=C)C[C@H]1CC(C)=C[C@@]2(C[C@@H](O)[C@H]3O[C@H](C[C@@H](O)CC(=C)C[C@H]4O[C@H](C/C=C/CCO)C[C@@H](O)[C@@H]4O)[C@H](O)[C@@H](O)[C@@H]3O2)O1)CC(=C)C[C@@H](C)C[C@@H](C)O`, for which the IC50 – broadly, the midpoint of a concentration-inhibition curve – came out at 9600 nM with N2a, 7300 nM in the assay on HCT-116 and 3700 nM in the assay on HepG2.
`C=C1[C@@H](O)[C@@H]2O[C@]3(CC[C@H](/C=C/[C@@H](C)[C@@H]4CC(C)=C[C@@]5(O[C@H](C[C@@](C)(O)C(=O)O)CC[C@H]5O)O4)O3)CC[C@H]2O[C@@H]1[C@@H](O)C[C@H](C)[C@H]1O[C@@]2(CCCCO2)CC[C@H]1C` [OKADAIC ACID]: the results for the half-maximal inhibitory concentration (IC50) in the assay on N2a, with HCT-116 and with HepG2 were 850 nM, 670 nM and 540 nM, respectively.
